From patent publication US20110218172A1, “COMPOSITION FOR DOWN-REGULATING PRO-INFLAMMATORY MARKERS” (priority 2010, published 2011)

What was measured:
[1] = test system: Mycobacterium tuberculli induced inflammatory arthritis in rats (injected paw); assay: Adjuvant-induced developing inflammatory arthritis (prophylactic), injected paw oedema; type: in vivo, Wistar rats; settings: 100 mg/kg oral once daily, day 14, injected paw
Method: Wistar rats, 12-14 weeks old, 140-160 g body weight in groups of 6 were employed in the study. All the animals were maintained in plastic cages at 22±2° C. with 12 h light/dark cycle and free access to pellet food and water. Test materials were administered orally once a day for the duration of the experiment. In all the experiments, a control group was maintained (vehicle administered) whilst the other group received a standard drug acetylsalicylic acid (ASA) administered once daily for comparison and authenticity/credibility of the test. The entire study was carried out after approval from Institutional Animal Ethics Committee and all the animals used in experimental work received humane care. The mean and standard error (S.E.) of the mean for each group was calculated and the results were expressed as percent inhibition compared to control group. The significance was determined statistically by applying Student's t-test.
Adjuvant arthritis was induced by the sub-plantar injection of 0.05 ml freshly prepared suspension (5.0 mg/ml) of steam killed Mycobacterium tuberculosis in liquid paraffin [Newbould BB. Chemotherapy of arthritis induced in rats by mycobacterial adjuvant. Br J Pharmacol 1963; 21:127-36]. The volume of the injected paws was quantitated before and on day 14th after the adjuvant injection and was measured by a volume differential meter model LE 7500N, Panlab, Spain.

[2] = test system: intracellular TNF-α in murine neutrophils; assay: Intracellular in vitro TNF-α estimation in LPS-stimulated murine neutrophils (flow cytometry); type: cell-based; settings: 100 μg/ml, 3 h
Method: Cells were stimulated with LPS and incubated with test materials at graded concentrations (μg/ml) for 3 hours, in a CO2 incubator. The permeabilising solution was added to the cells and then these were incubated for 10 min. The cells were then labeled with conjugated anti-mouse TNF-α monoclonal antibody and further incubation of 30 min. duration was carried out in dark. After washing with Phosphate buffered saline, the samples were acquired directly on BD-Cantoll Flowcytometer (Beckton-Dickinson Biosciences, CA, USA). A fluorescence trigger was set on the FL1 parameter of the gated neutrophils populations (10,000 events) and fluorescence compensation, data analysis and data presentation was performed using Cell Quest Pro software. [Clara, B., R. C. Arancha, G. M. Andre's, P. Atanasio, A. Julia, and O. Alberto. 2003. A new method for detecting TNF-α-secreting cells using direct immunofluorescence surface membrane stainings. J. Immuno. Methods 264:77-87.][Khurshid A. Bhat, Bhahwal A. Shah, Kuldeep K. Gupta, Anjali Pandey, Sarang Bani, Subhash C. Taneja. Semi-synthetic analogs of pinitol as potential inhibitors of TNF-a cytokine expression in human neutrophils. Bioorganic & Medicinal Chemistry Letters 19 2009, 1939-1943].

Structure (SMILES) | Oedema Mean ± S.E. [1] | inhibition at 100 mg/kg ([1]; Mycobacterium, 336 h, read-out: Percentage Activity Against Arthritic Control (↓ percent inhibition)) | % TNF-alpha expression against LPS control (↓ decrease) [2] | intracellular TNF-α expression Mean ± S.E ([2]; n=3)
CC(=O)Oc1ccccc1C(=O)O [ASA, Acetylsalicylic acid] | 1.82 ± 0.17 mm | 37% |  | 
COc1ccc(C2CNC(=O)C2)cc1OC1CCCC1 (stereo not shown) [Rolipram] |  |  | 71.48↓ % | 0.71 ± 0.04
